This passage reports viability, T/C and IC50 results from PubChem BioAssay AID1919017 (Molecular Pharmacology Branch, DTP, NCI, 2023).

Where “and” joins values, the source holds several entries; their conditions need not be identical. Identical values can stand only once. Some results are limits rather than exact numbers.

The assay relates to SW1271 complex spheroids with HUVEC/MSC, growth, % test/control. Nature of the assay: Anticancer human tumor SW1271 cell line growth inhibition [AhR].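 For all read-outs here: spheroids exposed to agents for 7 days before readout.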 The conditions noted are these: for viability, T/C: stronger effect = lower value; for IC50: curve of compound. An excerpt: Multicellular complex tumor spheroid response to aryl hydrocarbon receptor antagonists in combination with a variety of drugs and investigational agents in selected tumor cell lines
The current study was undertaken to assess response to aryl hydrocarbon receptor antagonists in combination with standard-of-care drugs and investigational agents in solid tumor complex spheroid models. Complex spheroids include a stromal component modeled by human endothelial cells (HUVEC) and fibroblasts modeled by human mesenchymal stem cells (MSCs). The concentration ranges selected for each drug and investigational agent were based upon clinically achievable concentrations if the clinical Cmax of the agent was known.
Compounds. The drugs and investigational agents: BAY 2416964 (NSC825713), GNF351 (NSC835774), CH-223191 (NSC835775), CPI-455 (NSC825282), aza-TdCyd (NSC777586), decitabine (NSC127716), belinostat (NSC758774), entinostat (NSC756642), pevonedistat (NSC761192), tazemetostat (NSC777109), talazoparib (NSC765396), olaparib (NSC753686), selinexor (NSC780203), nedisertib (M3814, NSC802822), bortezomib (NSC756655), venetoclax (NSC766270), doxorubicin (NSC123127), elimusertib (BAY189344, NSC800525), ceralasertib (AZD6738, NSC777638), TAK-243 (NSC785004), alisertib (NSC759677), etoposide (NSC141540), topotecan (NSC609699), eribulin (NSC707389), gemcitabine (NSC613327), carboplatin (NSC241240), cisplatin (NSC119875), and SN-38 (NSC673596) were obtained from the National Cancer Institute (NCI) Developmental Therapeutics Program Chemical Repository (32). The FDA-approved anticancer drug set is available from the Developmental Therapeutics Program at https://dtp.cancer.gov/organization/dscb/obtaining/available plates.htm. […] The stock solutions were prepared in dimethyl sulfoxide (DMSO, Sigma-Aldrich, St. Louis, MO, cat. D2650), except for the platinum compounds which were prepared in saline (Quality Biological, Gaithersburg, MD, cat. 114-055-101), at 800-fold the tested concentration and stored at -70 degrees C prior to their use. All drugs and investigational agents were tested over a range starting from a high concentration at or near the clinical Cmax and decreasing in half-log increments. If the clinical Cmax for an agent had not been determined, the highest concentration tested was 10 microM (Table 1).
Cell Culture. All cells were maintained in an incubator at 37 degrees C and 5% CO2 with 95% humidity. The PDC lines were cultured according to standard operating procedures established by the NCI PDMR (https://pdmr.cancer.gov). Briefly, all PDCs were thawed and cultured in Matrigel-coated flasks prepared with a working solution of 1X Ham's F-12 nutrient mix, without supplementation (Invitrogen, Waltham, MA, cat. 11765054), 100 U/mL penicillin-streptomycin (Invitrogen, cat. 15140122), and 2.5% Matrigel (Corning Inc., Corning, NY, cat. 354248) for the first three passages. All PDCs were cultured in complete DMEM/F-12 media containing advanced DMEM/F-12 (Invitrogen, cat. 12634028), 4.9% defined fetal bovine serum, heat inactivated (HyClone Laboratories Inc., Logan, UT, cat. SH30070.03HI), 389 ng/mL hydrocortisone (Sigma-Aldrich, cat. H4001), 9.7 ng/mL human EGF recombinant protein (Invitrogen, cat. PHG0313), 23.4 microg/mL adenine (Sigma-Aldrich, cat. A2786), 97.3 U/mL penicillin-streptomycin (Invitrogen, cat. 15140122), 1.9 mM L-glutamine (Invitrogen, cat. 25030081), and 9.7 microM Y-27632 dihydrochloride (Tocris Bioscience, Bristol, United Kingdom, cat. 1254). The PDCs were cultured in complete DMEM/F12 media without 10 microM Y-27632 dihydrochloride for at least two passages prior to the screen. The established cell lines NCI-H1341 and […] were cultured in DMEM/F-12, HEPES (Invitrogen, cat. 11330032), 5% defined fetal bovine serum (HyClone Laboratories Inc., cat. SH30070.03), ITS premix universal culture supplement [insulin (5 microg/mL), transferrin (5 microg/mL), and selenious acid (5 ng/mL)] […]

As to `Cn1ncnc1C1c2n[nH]c(=O)c3cc(F)cc(c23)NC1c1ccc(F)cc1` (configuration not stated), the IC50 (usually the concentration at which inhibition is half-maximal) was more than 0.1 µM. The viability, T/C (commonly the result in the treated group divided by that in the control group, in per cent) (compound 0.000316 µM) was 114% and 102% and 95.2%. For the setting “compound 0.001 µM”, the viability, T/C was 97.2% and 109% and 100%. Further, the viability, T/C (compound 0.00316 µM) is 101% and 95.9% and 94%. Besides, the viability, T/C (compound 0.01 µM) was 106% and 105% (2×). Further, the viability, T/C (compound 0.0316 µM) was 89.5% and 112% and 96.6%. Also, the viability, T/C (compound 0.1 µM) was 88.7% and 93.8% and 83.6%.

For `NS(=O)(=O)OCC1CC(n2ccc3c(NC4CCc5ccccc54)ncnc32)CC1O` (configuration not stated), the IC50 is > 10 µM and 8.7 µM. The viability, T/C (compound 0.0316 µM) was 151% and 137% and 133%. Moreover, the viability, T/C (compound 0.1 µM) was 143% and 152% and 145%. Moreover, the viability, T/C (compound 0.316 µM) is 120% and 101% and 89.3%. Further, the viability, T/C (compound 1 µM) was 99.3% and 103% and 71.7%. Further, the viability, T/C (compound 3.16 µM) is 88.6% and 93.6% and 57.3%. Moreover, the viability, T/C (compound 10 µM) is 77% and 86.9% and 55.2%.

Take `Nc1ccccc1NC(=O)c1ccc(CNC(=O)OCc2cccnc2)cc1`: the 50% inhibitory concentration (IC50) was 1.62 µM and 1.18 µM and 0.765 µM. For the same compound, under “compound 0.0316 µM”, the viability, T/C was 107% and 114% and 87.5%. The viability, T/C (compound 0.1 µM) is 112% and 89.2% and 77%. Further, for the setting “compound 0.316 µM”, the viability, T/C was 72.5% and 61% and 59.9%. For the same compound, the viability, T/C (compound 1 µM) is 62.2% and 60.4% and 45.5%. The viability, T/C (compound 3.16 µM) was 37.6% and 38.3% and 33.3%. For the same compound, for the setting “compound 10 µM”, the viability, T/C is 10.4% and 14.2% and 7.86%.

As for `Nc1ccn(C2OC(CO)C(O)C2(F)F)c(=O)n1` (configuration not stated), the viability, T/C was 75.2% and 49% and 67.7% (compound 0.0316 µM); 65.6% and 48.5% and 66.2% (compound 0.1 µM); 69.9% and 41.9% and 48.2% (compound 0.316 µM); 57.6% and 44.3% and 50% (compound 1 µM); 57.8% and 50.9% and 56.9% (compound 3.16 µM); 64.4% and 44.9% and 47.5% (compound 10 µM).

On to `Nc1ncn(C2CC(O)C(CO)O2)c(=O)n1` (configuration not stated), for which the IC50 was more than 1 µM. The viability, T/C (compound 0.00316 µM) is 97.1% and 72.6% and 93.8%. Where the note is “compound 0.01 µM”, the viability, T/C was 107% and 124% and 97%. Also, the viability, T/C (compound 0.0316 µM) is 95.4% and 81.6% and 69.9%. In addition, the viability, T/C (compound 0.1 µM) was 86.8% and 94.5% and 63.9%. Also, the viability, T/C (compound 0.316 µM) is 93.2% and 73.9% and 68.4%. In addition, where the note is “compound 1 µM”, the viability, T/C was 101% and 80.6% and 66.2%.

In the case of `Nc1ncn(C2CC(O)C(CO)S2)c(=O)n1` (configuration not stated), the concentration for half-maximal inhibition (IC50) is more than 0.3 µM. Further, for the setting “compound 0.000949 µM”, the viability, T/C was 87.6% and 102% and 94.9%. Besides, where the note is “compound 0.003 µM”, the viability, T/C is 97.8% and 95.9% and 114%. Moreover, for the setting “compound 0.00949 µM”, the viability, T/C is 85.7% and 82.9% and 113%. Besides, the viability, T/C (compound 0.03 µM) is 94.8% and 90.3% and 103%. Also, the viability, T/C (compound 0.0949 µM) is 89.2% and 85.8% and 94.6%. The viability, T/C (compound 0.3 µM) was 78.8% and 82.7% and 78.6%.

`O=C(C=Cc1cccc(S(=O)(=O)Nc2ccccc2)c1)NO`: the 50% inhibitory concentration (IC50) is 1.55 µM and 0.963 µM and 0.556 µM. Further, the viability, T/C (compound 0.0316 µM) is 103% and 83.5% and 85.7%. The viability, T/C (compound 0.1 µM) is 93.6% and 105% and 72.1%. Also, the viability, T/C (compound 0.316 µM) is 84.1% and 62.7% and 54.9%. Besides, the viability, T/C (compound 1 µM) was 62.3% and 55.8% and 46.2%. Besides, the viability, T/C (compound 3.16 µM) was 31.1% and 22.6% and 23.3%. The viability, T/C (compound 10 µM) is 13.2% and 16.8% and 9.23%.

For `O=C(C=Cn1cnc(-c2cc(C(F)(F)F)cc(C(F)(F)F)c2)n1)NNc1cnccn1`, the IC50 was 1.66 µM and 1.43 µM and 0.701 µM. Moreover, the viability, T/C (compound 0.00949 µM) is 95.2% and 89.5% and 105%. In addition, the viability, T/C (compound 0.03 µM) was 92.7% and 78.8% and 61.8%. Further, the viability, T/C (compound 0.0949 µM) was 79.7% and 88.9% and 77.8%. In addition, the viability, T/C (compound 0.3 µM) was 78.9% and 65.1% and 64.9%. Besides, the viability, T/C (compound 0.949 µM) was 55% and 57% and 44.6%. Further, the viability, T/C (compound 3 µM) is 42.1% and 41.2% and 35.7%.

Turning to `O=C(c1cc(Cc2n[nH]c(=O)c3ccccc23)ccc1F)N1CCN(C(=O)C2CC2)CC1`, the IC50 was more than 10 µM. The viability, T/C (compound 0.0316 µM) is 93% and 99.8% (2×). Besides, the viability, T/C (compound 0.1 µM) was 101% and 109% and 92.5%. The viability, T/C (compound 0.316 µM) is 90.8% and 96.5% and 82.1%. Moreover, the viability, T/C (compound 1 µM) is 84.3% and 88.2% and 89.1%. Also, for the setting “compound 3.16 µM”, the viability, T/C is 80.5% and 98.7% and 74.1%. For the setting “compound 10 µM”, the viability, T/C is 66% and 77.4% and 76.5%.
